Measurements published in PubChem BioAssay AID248 (DTP/NCI, 2004).
“And” between values parts separate entries of the source, which are not always exact repeats. Identical values can stand only once. Toxic doses and inconclusive results are not listed. No stated cut-off is given here; in the data, active means T/C of 150% or more; inactive means T/C below 125%.

Tested on: L1210 leukemia ip in BDF1 mice, survival T/C
Test: NCI In Vivo Anticancer Drug Screen. Data for tumor model L1210 Leukemia (intraperitoneal) in B6D2F1 (BDF1) mice
Conditions: endpoint: mean survival time, higher = longer survival
In short: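 Transplanted-tumor mice were given test agent; controls received vehicle only. Survival readings from the two groups were divided (treated over control).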

[1] = dose: 100.0 mg/kg/injection, schedule: Q01DX001 (ip), vehicle: carboxymethylcellulose (CMC)
[2] = dose: 200.0 mg/kg/injection, schedule: Q01DX001 (ip), vehicle: carboxymethylcellulose (CMC)
[3] = dose: 400.0 mg/kg/injection, schedule: Q01DX001 (ip), vehicle: carboxymethylcellulose (CMC)
[4] = dose: 100.0 mg/kg/injection, schedule: Q01DX009 (ip), vehicle: saline
[5] = dose: 100.0 mg/kg/injection, schedule: Q04DX003 (ip), vehicle: saline
[6] = dose: 200.0 mg/kg/injection, schedule: Q01DX009 (ip), vehicle: saline
[7] = dose: 200.0 mg/kg/injection, schedule: Q04DX003 (ip), vehicle: saline
[8] = dose: 400.0 mg/kg/injection, schedule: Q04DX003 (ip), vehicle: saline
[9] = dose: 100.0 mg/kg/injection, schedule: Q04DX003 (ip), vehicle: saline with Tween-80
[10] = dose: 200.0 mg/kg/injection, schedule: Q04DX003 (ip), vehicle: saline with Tween-80
[11] = dose: 400.0 mg/kg/injection, schedule: Q04DX003 (ip), vehicle: saline with Tween-80
[12] = dose: 50.0 mg/kg/injection, schedule: Q01DX001 (ip), vehicle: saline
[13] = dose: 100.0 mg/kg/injection, schedule: Q01DX001 (ip), vehicle: saline
[14] = dose: 100.0 mg/kg/injection, schedule: Q01DX009 (ip), vehicle: Klucel (hydroxypropylcellulose) (HPC)
[15] = dose: 200.0 mg/kg/injection, schedule: Q01DX001 (ip), vehicle: saline
[16] = dose: 200.0 mg/kg/injection, schedule: Q01DX009 (ip), vehicle: Klucel (hydroxypropylcellulose) (HPC)
[17] = dose: 100.0 mg/kg/injection, schedule: Q04DX003 (ip), vehicle: Klucel (hydroxypropylcellulose) (HPC)
[18] = dose: 200.0 mg/kg/injection, schedule: Q04DX003 (ip), vehicle: Klucel (hydroxypropylcellulose) (HPC)
[19] = dose: 400.0 mg/kg/injection, schedule: Q04DX003 (ip), vehicle: Klucel (hydroxypropylcellulose) (HPC)
[20] = dose: 400.0 mg/kg/injection, schedule: Q01DX009 (ip), vehicle: Klucel (hydroxypropylcellulose) (HPC)
[21] = dose: 400.0 mg/kg/injection, schedule: Q01DX001 (ip), vehicle: saline
[22] = dose: 75.0 mg/kg/injection, schedule: Q01DX001 (ip), vehicle: saline

Measured: T/C

CSc1ccnc2c1ncn2C1OC(CO)C(O)C1O (configuration not stated)
inactive: [1] 98 % of control | [2] 104 % of control | [3] 96 % of control

CCOC(=O)CN1CCC(C(=O)OC)CC1
inactive: [4] 96 % of control | [5] 112 % of control | [6] 98 % of control | [7] 124 % of control | dose: 400.0 mg/kg/injection, schedule: Q01DX009 (ip), vehicle: saline 112 % of control | [8] 96 % of control

N#CC(C#N)=C1SCS1
inactive: dose: 6.25 mg/kg/injection, schedule: Q04DX002 (ip), vehicle: saline with Tween-80 103 % of control | dose: 12.5 mg/kg/injection, schedule: Q04DX002 (ip), vehicle: saline with Tween-80 111 % of control | dose: 25.0 mg/kg/injection, schedule: Q04DX002 (ip), vehicle: saline with Tween-80 114 % of control

CCOC(=O)C1SC(N)=NC1=O (configuration not stated)
inactive: [9] 94 % of control | [10] 90 % of control

C/C=C\C=C\C(=O)OC
inactive: [9] 99 % of control | [10] 89 % of control | [11] 92 % of control

CN=NNc1ccc(C)cc1
inactive: dose: 25.0 mg/kg/injection, schedule: Q01DX009 (ip), vehicle: Klucel (hydroxypropylcellulose) (HPC) 89 % of control | [12] 108 % of control | dose: 50.0 mg/kg/injection, schedule: Q01DX009 (ip), vehicle: Klucel (hydroxypropylcellulose) (HPC) 105 % of control and 117 % of control | [13] 108 % of control | [14] 102 % of control and 120 % of control | dose: 150.0 mg/kg/injection, schedule: Q01DX009 (ip), vehicle: Klucel (hydroxypropylcellulose) (HPC) 113 % of control | [15] 116 % of control | [16] 99 % of control and 91 % of control

COC(=O)CCN(c1ccccc1)S(=O)(=O)c1ccc(C)cc1
inactive: [17] 91 % of control | [18] 94 % of control | [19] 93 % of control

O=C(c1ccc(-c2ccccc2)cc1)C1CC1
inactive: [14] 97 % of control | [16] 97 % of control | [20] 91 % of control

CCCNC(=O)Nc1ccccc1OC
inactive: dose: 100.0 mg/kg/injection, schedule: Q04DX002 (ip), vehicle: Klucel (hydroxypropylcellulose) (HPC) 97 % of control | dose: 200.0 mg/kg/injection, schedule: Q04DX002 (ip), vehicle: Klucel (hydroxypropylcellulose) (HPC) 87 % of control | dose: 400.0 mg/kg/injection, schedule: Q04DX002 (ip), vehicle: Klucel (hydroxypropylcellulose) (HPC) 94 % of control

CCOC(=O)C(CC1CCCCC1)(NC(C)=O)C(=O)OCC
inactive: dose: 75.0 mg/kg/injection, schedule: Q04DX003 (ip), vehicle: saline 96 % of control | dose: 150.0 mg/kg/injection, schedule: Q04DX003 (ip), vehicle: saline 104 % of control | dose: 300.0 mg/kg/injection, schedule: Q04DX003 (ip), vehicle: saline 100 % of control

O=C1C=CC(=O)N1CCCCN1C(=O)C=CC1=O
inactive: dose: 11.1 mg/kg/injection, schedule: Q01DX Z (ip), vehicle: methylcellulose (MC) 96 % of control | dose: 16.6 mg/kg/injection, schedule: Q01DX Z (ip), vehicle: methylcellulose (MC) 106 % of control | dose: 25.0 mg/kg/injection, schedule: Q01DX Z (ip), vehicle: methylcellulose (MC) 93 % of control

c1ccc(-c2nnc(-c3ccc4ccc5cccnc5c4n3)nc2-c2ccccc2)cc1
inactive: [9] 93 % of control | [10] 104 % of control | [11] 104 % of control

COP1(=O)C=C(C)CC1 (configuration not stated)
inactive: [13] 95 % of control | [15] 95 % of control | [21] 95 % of control

CCCCC(=O)N/N=C/c1ccc(OCC)c(OCC)c1
inactive: [13] 102 % of control | [15] 98 % of control | [21] 102 % of control

C(=N\OCc1ccccc1)/c1ccccn1
inactive: [14] 94 % of control | [17] 96 % of control | [16] 101 % of control | [18] 97 % of control | [20] 100 % of control | [19] 103 % of control

O=[N+]([O-])c1ccc(/C=C/c2ccccc2)c([N+](=O)[O-])c1
inactive: [17] 104 % of control | [18] 98 % of control | [19] 101 % of control

C=CCC1(C(=C)C)C(=O)NC(=S)NC1=O
inactive: dose: 75.0 mg/kg/injection, schedule: Q01DX001 (ip), vehicle: carboxymethylcellulose (CMC) 95 % of control | [22] 91 % of control | dose: 150.0 mg/kg/injection, schedule: Q01DX001 (ip), vehicle: carboxymethylcellulose (CMC) 105 % of control | dose: 150.0 mg/kg/injection, schedule: Q01DX001 (ip), vehicle: saline 102 % of control

COc1ccccc1CNC1CCCCC1
inactive: [22] 92 % of control

NNc1cccc(C(F)(F)F)c1
inactive: dose: 25.0 mg/kg/injection, schedule: Q01DX009 (ip), vehicle: saline with Tween-80 94 % of control | dose: 25.0 mg/kg/injection, schedule: Q04DX003 (ip), vehicle: saline with Tween-80 100 % of control | dose: 50.0 mg/kg/injection, schedule: Q01DX009 (ip), vehicle: saline with Tween-80 96 % of control | dose: 50.0 mg/kg/injection, schedule: Q04DX003 (ip), vehicle: saline with Tween-80 95 % of control | [9] 95 % of control and 98 % of control

CC12OC3C4C(=O)OC1C1OC4(C)C3C(=O)OC12
inactive: [5] 102 % of control | [7] 97 % of control | [8] 95 % of control

Cc1cc2oc(=O)c3c(c2c(O)c1CN1CCN(C)CC1)CCCC3
inactive: [13] 95 % of control | [15] 92 % of control

COC(=O)C(CSSCC(NC(=O)c1ccccc1)C(=O)OC)NC(=O)c1ccccc1 (configuration not stated)
inactive: [12] 98 % of control | [13] 114 % of control | [15] 97 % of control

Clc1ccc(/C=C\c2ccncc2)cc1
inactive: dose: 50.0 mg/kg/injection, schedule: Q01DX001 (ip), vehicle: carboxymethylcellulose (CMC) 102 % of control | [1] 98 % of control | [2] 119 % of control | [3] 98 % of control

Nc1ncnc(N)c1N=O
inactive: dose: 50.0 mg/kg/injection, schedule: Q01DX009 (ip), vehicle: saline 107 % of control | [4] 91 % of control | [6] 101 % of control

O=C1C=CC(=Nc2ccc(Cl)cc2)O1
inactive: dose: 100.0 mg/kg/injection, schedule: Q01DX009 (ip), vehicle: saline with Tween-80 104 % of control | dose: 200.0 mg/kg/injection, schedule: Q01DX009 (ip), vehicle: saline with Tween-80 102 % of control | dose: 400.0 mg/kg/injection, schedule: Q01DX009 (ip), vehicle: saline with Tween-80 97 % of control

CC(=O)OC(COS(=O)(=O)c1ccc(C)cc1)C1OCOC(COS(=O)(=O)c2ccc(C)cc2)C1OC(C)=O (configuration not stated)
inactive: dose: 100.0 mg/kg/injection, schedule: Q01DX001 (ip), vehicle: saline with Tween-80 92 % of control | dose: 200.0 mg/kg/injection, schedule: Q01DX001 (ip), vehicle: saline with Tween-80 93 % of control | dose: 400.0 mg/kg/injection, schedule: Q01DX001 (ip), vehicle: saline with Tween-80 95 % of control

c1ccc2c3c([nH]c2c1)CCC3
inactive: [1] 93 % of control | [2] 98 % of control | [3] 102 % of control
